# Data published in patent US20210253575A1, “PYRROLIDINE AMINE COMPOUNDS FOR THE TREATMENT OF AUTOIMMUNE DISEASE” (Hoffmann-La Roche Inc., priority 2018, published 2021).
# Target: T1, human TLR7 (Homo sapiens, UniProt Q9NYK1)
# T1 sequence (Q9NYK1 27-1049): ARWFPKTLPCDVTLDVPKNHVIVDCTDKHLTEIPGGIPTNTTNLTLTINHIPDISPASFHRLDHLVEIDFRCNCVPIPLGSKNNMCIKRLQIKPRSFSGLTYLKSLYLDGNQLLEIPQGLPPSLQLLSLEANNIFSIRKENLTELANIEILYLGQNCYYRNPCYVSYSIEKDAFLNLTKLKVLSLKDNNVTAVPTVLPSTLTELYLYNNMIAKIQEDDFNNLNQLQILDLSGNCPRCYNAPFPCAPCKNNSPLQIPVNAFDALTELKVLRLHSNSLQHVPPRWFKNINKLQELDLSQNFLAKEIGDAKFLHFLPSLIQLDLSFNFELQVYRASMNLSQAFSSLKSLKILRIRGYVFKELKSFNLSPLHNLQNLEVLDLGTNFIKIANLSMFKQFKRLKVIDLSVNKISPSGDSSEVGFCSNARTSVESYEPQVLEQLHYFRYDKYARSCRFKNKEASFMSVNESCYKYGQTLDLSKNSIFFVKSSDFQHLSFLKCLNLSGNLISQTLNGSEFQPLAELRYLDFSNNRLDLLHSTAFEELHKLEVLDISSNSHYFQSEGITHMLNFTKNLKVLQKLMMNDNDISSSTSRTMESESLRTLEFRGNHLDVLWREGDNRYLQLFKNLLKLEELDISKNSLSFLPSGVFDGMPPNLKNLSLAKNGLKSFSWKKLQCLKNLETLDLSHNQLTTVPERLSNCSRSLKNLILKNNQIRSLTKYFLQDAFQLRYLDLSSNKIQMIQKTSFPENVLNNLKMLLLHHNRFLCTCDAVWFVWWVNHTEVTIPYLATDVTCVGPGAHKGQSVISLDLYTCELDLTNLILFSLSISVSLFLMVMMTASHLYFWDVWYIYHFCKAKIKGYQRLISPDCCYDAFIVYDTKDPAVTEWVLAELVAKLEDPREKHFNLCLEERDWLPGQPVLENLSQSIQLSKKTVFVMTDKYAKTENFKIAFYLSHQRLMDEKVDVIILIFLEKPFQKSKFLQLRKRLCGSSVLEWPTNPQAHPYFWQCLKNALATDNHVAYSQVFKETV
# Experiment: HEK293-Blue-hTLR-7 cells assay (SEAP reporter, R848 stimulation)
# Format: cell-based
# Settings: HEK293-Blue-hTLR7 cells, R848 ligand, 20 hrs incubation
# Experimental: The following tests were carried out in order to determine the activity of the compounds of formula (I) in HEK293-Blue-hTLR-7/8/9 cells assay.
# HEK293-Blue-hTLR-7 Cells Assay:
# A stable HEK293-Blue-hTLR-7 cell line was purchased from InvivoGen (Cat. #: hkb-htlr7, San Diego, Calif., USA). These cells were originally designed for studying the stimulation of human TLR7 by monitoring the activation of NF-κB. A SEAP (secreted embryonic alkaline phosphatase) reporter gene was placed under the control of the IFN-β minimal promoter fused to five NF-κB and AP-1-binding sites. The SEAP was induced by activating NF-κB and AP-1 via stimulating HEK-Blue hTLR7 cells with TLR7 ligands. Therefore the reporter expression was declined by TLR7 antagonist under the stimulation of a ligand, such as R848 (Resiquimod), for incubation of 20 hrs. The cell culture supernatant SEAP reporter activity was determined using QUANTI-Blue™ kit (Cat. #: rep-qb1, Invivogen, San Diego, Ca, USA) at a wavelength of 640 nm, a detection medium that turns purple or blue in the presence of alkaline phosphatase.
# HEK293-Blue-hTLR7 cells were incubated at a density of 250,000-450,000 cells/mL in a volume of 170 μL in a 96-well plate in Dulbecco's Modified Eagle's medium (DMEM) containing 4.5 g/L glucose, 50 U/mL penicillin, […], […], 2 mM L-glutamine, 10% (v/v) heat-inactivated fetal bovine serum with addition of 20 μL test compound in a serial dilution in the presence of final DMSO at 1% and 10 μL of 20 uM R848 in above DMEM, perform incubation under 37° C. in a CO2 incubator for 20 hrs. Then 20 μL of the supernatant from each well was incubated with 180 μL Quanti-blue substrate solution at 37° C. for 2 hrs and the absorbance was read at 620-655 nm using a spectrophotometer. The signalling pathway that TLR7 activation leads to downstream NF-κB activation has been widely accepted, and therefore similar reporter assay was modified for evaluating TLR7 antagonist.
row,SMILES,IC50
1,"C[C@@H]1CN(c2ccc(C(F)(F)F)c3nccnc23)C[C@H]1CN1CCC(N2CCCCC2)CC1 (relative stereo) [Example 33, 5-[Trans-3-methyl-4-[[4-(1-piperidyl)-1-piperidyl]methyl]pyrrolidin-1-yl]-8-(trifluoromethyl)quinoxaline]",432 nM
2,C[C@@H]1CN(c2ccc(C(F)(F)F)c3nccnc23)C[C@H]1CNC1CCCNCC1 (stereo partly drawn) [Example 40],746 nM
3,"N#Cc1ccc(N2C[C@H](CN3CCC4(CCNC4)C3)[C@@H](C(F)(F)F)C2)c2nccnc12 (stereo partly drawn) [Example 5, 8-[(3S,4R)-3-(2,7-diazaspiro[4.4]nonan-2-ylmethyl)-4-(trifluoromethyl)pyrrolidin-1-yl]quinoxaline-5-carbonitrile]",36 nM
4,"N#Cc1ccc(N2CC(CN3CCC(N4CCCCC4)CC3)C3(CC3)C2)c2nccnc12 (stereo not drawn) [Example 11, 8-[7-[[4-(1-Piperidyl)-1-piperidyl]methyl]-5-azaspiro[2.4]heptan-5-yl]quinoxaline-5-carbonitrile]",74 nM
5,"N#Cc1ccc(N2C[C@H](CN3CCC(N)CC3)[C@@H](C(F)(F)F)C2)c2nccnc12 [Example 51, 8-[(3S,4R)-3-[(4-amino-1-piperidyl)methyl]-4-(trifluoromethyl)pyrrolidin-1-yl]quinoxaline-5-carbonitrile]",90 nM
6,"N#Cc1ccc(N2CC(CN3CCC(N4CCOCC4)CC3)C3(CC3)C2)c2nccnc12 (stereo not drawn) [Example 58, 8-[7-[(4-Morpholino-1-piperidyl)methyl]-5-azaspiro[2.4]heptan-5-yl]quinoxaline-5-carbonitrile]",313 nM
7,"N#Cc1ccc(N2C[C@H](CN3CCC4(CCNCC4)CC3)[C@@H](C(F)(F)F)C2)c2cccnc12 [Example 2, 5-[(3S,4R)-3-(3,9-diazaspiro[5.5]undecan-3-ylmethyl)-4-(trifluoromethyl)pyrrolidin-1-yl]quinoline-8-carbonitrile]",20 nM
8,"N#Cc1ccc(N2C[C@@H](CN3CCC4(CCNC4)C3)[C@H](C(F)F)C2)c2cccnc12 (relative stereo) [Example 34, 5-[Trans-3-(2,7-diazaspiro[4.4]nonan-2-ylmethyl)-4-(difluoromethyl)pyrrolidin-1-yl]quinoline-8-carbonitrile]",454 nM
9,"N#Cc1ccc(N2C[C@@H](CN3CCC4(CCNCC4)CC3)[C@H](C(F)F)C2)c2cccnc12 (relative stereo) [Example 27, 5-[Trans-3-(3,9-diazaspiro[5.5]undecan-3-ylmethyl)-4-(difluoromethyl)pyrrolidin-1-yl]quinoline-8-carbonitrile]",354 nM
10,"N#Cc1ccc(N2C[C@H](CN3CC4(CCCNC4)C3)[C@@H](C(F)(F)F)C2)c2cccnc12 [Example 8, 5-[(3S,7R)-3-(2,8-diazaspiro[3.5]nonan-2-ylmethyl)-4-(trifluoromethyl)pyrrolidin-1-yl]quinoline-8-carbonitrile]",57 nM
11,"N#Cc1ccc(N2C[C@H](CN3CCC(N)C(F)(F)C3)[C@@H](C(F)(F)F)C2)c2nccnc12 (stereo partly drawn) [Example 64, 8-[(3S,4R)-3-[(4-amino-3,3-difluoro-1-piperidyl)methyl]-4-(trifluoromethyl)pyrrolidin-1-yl]quinoxaline-5-carbonitrile]",36 nM
12,"N#Cc1ccc(N2CC(CN3CC4(CC(N)C4)C3)C3(CC3)C2)c2nccnc12 (stereo not drawn) [Example 42, 8-[7-[(6-Amino-2-azaspiro[3.3]heptan-2-yl)methyl]-5-azaspiro[2.4]heptan-5-yl]quinoxaline-5-carbonitrile]",867 nM
13,"C[C@@H]1CN(c2ccc(C(F)(F)F)c3nccnc23)C[C@H]1CN1CCC2(CCNCC2)CC1 (relative stereo) [Example 21, 3-[[Trans-4-methyl-1-[8-(trifluoromethyl)quinoxalin-5-yl]pyrrolidin-3-yl]methyl]-3,9-diazaspiro[5.5]undecane]",189 nM
14,"N#Cc1ccc(N2C[C@H](CN3CCC(CN)CC3)[C@@H](C(F)(F)F)C2)c2nccnc12 [Example 74, 8-[(3S,4R)-3-[[4-(aminomethyl)-1-piperidyl]methyl]-4-(trifluoromethyl)pyrrolidin-1-yl]quinoxaline-5-carbonitrile]",28 nM
15,"CC[C@@H]1CN(c2ccc(C#N)c3ncccc23)C[C@H]1CN1CCC2(CCNC2)C1 (relative stereo) [Example 29, 5-[Trans-3-(2,7-diazaspiro[4.4]nonan-2-ylmethyl)-4-ethyl-pyrrolidin-1-yl]quinoline-8-carbonitrile]",370 nM
16,"C[C@H]1CN(c2ccc(C#N)c3ncccc23)C[C@@H]1CN1CCC2(CCNC2)C1 (stereo partly drawn) [Example 35, 5-[(3S,4R)-3-(2,7-diazaspiro[4.4]nonan-2-ylmethyl)-4-methyl-pyrrolidin-1-yl]quinoline-8-carbonitrile]",468 nM
17,"N#Cc1ccc(N2C[C@H](CN3CCC4(CCNC4)C3)[C@@H](C(F)(F)F)C2)c2cccnc12 (stereo partly drawn) [Example 9, 5-[(3S,4R)-3-(2,7-diazaspiro[4.4]nonan-2-ylmethyl)-4-(trifluoromethyl)pyrrolidin-1-yl]quinoline-8-carbonitrile]",61 nM
18,"N#Cc1ccc(N2C[C@H](CN3CCC4(CCCNC4)CC3)[C@@H](C(F)(F)F)C2)c2cccnc12 [Example 55, 5-[(3S,4R)-3-(2,9-Diazaspiro[5.5]undecan-9-ylmethyl)-4-(trifluoromethyl)pyrrolidin-1-yl]quinoline-8-carbonitrile]",111 nM
19,"N#Cc1ccc(N2C[C@H](CN3CC4CCC(C3)C4N)[C@@H](C(F)(F)F)C2)c2nccnc12 (stereo partly drawn) [Example 73, 8-[(3S,4R)-3-[(8-amino-3-azabicyclo[3.2.1]octan-3-yl)methyl]-4-(trifluoromethyl)pyrrolidin-1-yl]quinoxaline-5-carbonitrile]",20 nM
20,"CN(C)C[C@@H]1CCN(C[C@H]2CN(c3ccc(C#N)c4nccnc34)C[C@@H]2C(F)(F)F)C1 [Example 82, 8-[(3S,4R)-3-[[(3S)-3-[(dimethylamino)methyl]pyrrolidin-1-yl]methyl]-4-(trifluoromethyl)pyrrolidin-1-yl]quinoxaline-5-carbonitrile]",106 nM
21,"FC(F)(F)c1ccc(N2C[C@@H](CN3CCC4(CCNC4)C3)[C@H](C(F)(F)F)C2)c2nccnc12 (relative stereo) [Example 19, 5-[Trans-3-(2,7-diazaspiro[4.4]nonan-2-ylmethyl)-4-(trifluoromethyl)pyrrolidin-1-yl]-8-(trifluoromethyl)quinoxaline]",142 nM
22,"C[C@H]1CN(c2ccc(C#N)c3nccnc23)C[C@@H]1CN1CCC2(CCNC2)C1 (stereo partly drawn) [Example 30, 8-[(3S,4R)-3-(2,7-diazaspiro[4.4]nonan-2-ylmethyl)-4-methyl-pyrrolidin-1-yl]quinoxaline-5-carbonitrile]",382 nM
23,"N#Cc1ccc(N2C[C@H](CN3CCC(N)CC3)[C@@H](C(F)(F)F)C2)c2nccnc12 [Example 26, 8-[(3S,4R)-3-[(4-Amino-1-piperidyl)methyl]-4-(trifluoromethyl)pyrrolidin-1-yl]quinoxaline-5-carbonitrile]",55 nM
24,"N#Cc1ccc(N2C[C@H](CN3CCC(N4CCCCC4)CC3)[C@@H](C(F)(F)F)C2)c2cccnc12 [Example 10, 5-[(3S,4R)-3-[[4-(1-piperidyl)-1-piperidyl]methyl]-4-(trifluoromethyl)pyrrolidin-1-yl]quinoline-8-carbonitrile]",69 nM
